Converted amounts (≈) assume the structure as drawn. Where two headings read alike, the source gives them in different places.
Key:
Type in all cases: cell-based
[1] = tested on: M. suipneumoniae TAM 6N; experiment: Anti-mycoplasmal MIC in vitro, Friis broth agarose (Table 1); details: Mesomycoplasma hyopneumoniae, TAM6N, 144 h
[2] = tested on: M. suipneumoniae J2206/183b; experiment: as above; details: Mesomycoplasma hyopneumoniae, 144 h
[3] = tested on: S. typhimurium S18; experiment: Veterinary bacteria MIC, Diagnostic Sensitivity Test Agar (Table 2); details: Salmonella enterica; S. typhimurium S18; DST Agar, 10^4 organisms, 18 hours 37° C.; read-out: MIC
Protocol: (§1) The values were determined using a two fold serial dilutions in Diagnostic Sensitivity Test Agar with an inoculum of 10^4 organisms and incubation for 18 hours at 37° C.

[4] = tested on: Staph. aureus B4; experiment: as above; details: Staphylococcus aureus; Staph. aureus B4; DST Agar, 10^4 organisms, 18 hours 37° C.; read-out: MIC
Protocol: as §1

[5] = tested on: Erysipelothrix rhusiopathiae NCTC 8163; experiment: as above; details: NCTC8163; Erysipelothrix rhusiopathiae NCTC 8163; DST Agar, 10^4 organisms, 18 hours 37° C.; read-out: MIC
Protocol: as §1

[6] = tested on: Strep. uberis SPO1; experiment: as above; details: Streptococcus uberis; Strep. uberis SPO1; DST Agar, 10^4 organisms, 18 hours 37° C.; read-out: MIC
Protocol: as §1

[7] = tested on: Staph. aureus Oxford; experiment: as above; details: Staphylococcus aureus; Staph. aureus Oxford; DST Agar, 10^4 organisms, 18 hours 37° C.; read-out: MIC
Protocol: as §1

[8] = tested on: Bord. bronchiseptica BO9; experiment: as above; details: Bordetella bronchiseptica; Bord. bronchiseptica BO9; DST Agar, 10^4 organisms, 18 hours 37° C.; read-out: MIC
Protocol: as §1

[9] = tested on: Corynebacterium pyogenes CY1; experiment: as above; details: Trueperella pyogenes; Corynebacterium pyogenes CY1; DST Agar, 10^4 organisms, 18 hours 37° C.; read-out: MIC
Protocol: as §1

[10] = tested on: Past. multocida PA1; experiment: as above; details: Pasteurella multocida; Past. multocida PA1; DST Agar, 10^4 organisms, 18 hours 37° C.; read-out: MIC
Protocol: as §1

[11] = tested on: Staph. aureus 152; experiment: as above; details: Staphylococcus aureus; Staph. aureus 152; DST Agar, 10^4 organisms, 18 hours 37° C.; read-out: MIC
Protocol: as §1

[12] = tested on: Strep. suis (group D) SPS11; experiment: as above; details: Streptococcus suis; Strep. suis (group D) SPS11; DST Agar, 10^4 organisms, 18 hours 37° C.; read-out: MIC
Protocol: as §1

[13] = tested on: Bord. bronchiseptica BO8; experiment: as above; details: Bordetella bronchiseptica; Bord. bronchiseptica BO8; DST Agar, 10^4 organisms, 18 hours 37° C.; read-out: MIC
Protocol: as §1

[14] = tested on: E. Coli NCTC 10418; experiment: as above; details: Escherichia coli, NCTC10418; E. Coli NCTC 10418; DST Agar, 10^4 organisms, 18 hours 37° C.; read-out: MIC
Protocol: as §1

[15] = tested on: S. dublin S7; experiment: as above; details: Salmonella enterica; S. dublin S7; DST Agar, 10^4 organisms, 18 hours 37° C.; read-out: MIC
Protocol: as §1

[16] = tested on: Past. haemolytica PA5; experiment: as above; details: Mannheimia haemolytica; Past. haemolytica PA5; DST Agar, 10^4 organisms, 18 hours 37° C.; read-out: MIC
Protocol: as §1

[17] = tested on: Strep. dylgalactiae SPD1; experiment: as above; details: Strep. dylgalactiae SPD1; DST Agar, 10^4 organisms, 18 hours 37° C.; read-out: MIC
Protocol: as §1

[18] = tested on: Past. multocida PA2; experiment: as above; details: Pasteurella multocida; Past. multocida PA2; DST Agar, 10^4 organisms, 18 hours 37° C.; read-out: MIC
Protocol: as §1

[19] = tested on: Strep. agalactiae SPA1; experiment: as above; details: Streptococcus agalactiae; Strep. agalactiae SPA1; DST Agar, 10^4 organisms, 18 hours 37° C.; read-out: MIC
Protocol: as §1

[20] = tested on: M. bovigenitalium ATOC 14173; experiment: Anti-mycoplasmal MIC in vitro, Friis broth agarose (Table 1); details: 144 h
[21] = tested on: M. hyorhinis ATCC 23234; experiment: as above; details: Mesomycoplasma hyorhinis, ATCC23234, 144 h
[22] = tested on: M. suipneumoniae LABER; experiment: as above; details: Mesomycoplasma hyopneumoniae, 144 h
[23] = tested on: M. suipneumoniae Str. 11; experiment: as above; details: Mesomycoplasma hyopneumoniae
[24] = tested on: M. suipneumoniae MS 16; experiment: as above; details: Mesomycoplasma hyopneumoniae, MS16, 144 h
[25] = tested on: M. suipneumoniae NB12; experiment: as above; details: Mesomycoplasma hyopneumoniae
[26] = tested on: M. dispar RCTC 10125; experiment: as above; details: 144 h
[27] = tested on: M. gallisepticum S6; experiment: as above; details: Mycoplasmoides gallisepticum
[28] = M. suipneumoniae TAM 6N, in vitro, 6 days 37° C., read-out: MIC
[29] = 144 h, M. gallisepticum S6, in vitro, 6 days 37° C., read-out: MIC

SMILES | MIC [1, 28] [µg/mL] | MIC [3] [µg/mL] | MIC [4] [µg/mL] | MIC [5] [µg/mL] | MIC [6] [µg/mL] | MIC [7] [µg/mL] | MIC [8] [µg/mL] | MIC [9] [µg/mL] | MIC [10] [µg/mL] | MIC [11] [µg/mL] | MIC [12] [µg/mL] | MIC [13] [µg/mL] | MIC [14] [µg/mL] | MIC [15] [µg/mL] | MIC [16] [µg/mL] | MIC [17] [µg/mL] | MIC [18] [µg/mL] | MIC [19] [µg/mL] | MIC [20] [µg/mL] | MIC [26] [µg/mL] | further results
C/C(=C\C(=O)OC(C)c1cccc([N+](=O)[O-])c1)CC1OCC(CC2OC2C(C)C(C)O)C(O)C1O (stereo not drawn) [Example 3, 1-(m-nitrophenyl)ethyl monate A] | 0.25 (≈ 0.507 µM) | > 80 | 2.5 (≈ 5.07 µM) | 80 (≈ 162 µM) | 0.312 (≈ 0.632 µM) | 2.5 (≈ 5.07 µM) | 80 (≈ 162 µM) | > 80 | 20 (≈ 40.5 µM) | 2.5 (≈ 5.07 µM) | 40 (≈ 81 µM) | > 80 | > 80 | > 80 | 40 (≈ 81 µM) | 1.25 (≈ 2.53 µM) | 2.5 (≈ 5.07 µM) | 2.5 (≈ 5.07 µM) | 0.05 (≈ 0.101 µM) | 0.05 (≈ 0.101 µM) | MIC ([2]; M. suipneumoniae J2206/183b, in vitro, 6 days 37° C., read-out: MIC): 0.25 µg/mL (≈ 0.507 µM); MIC ([21]; M. hyorhinis ATCC 23234, in vitro, 6 days 37° C., read-out: MIC): 0.1 µg/mL (≈ 0.203 µM); MIC ([22]; M. suipneumoniae LABER, in vitro, 6 days 37° C., read-out: MIC): 0.1 µg/mL (≈ 0.203 µM); MIC ([23]; 144 h, M. suipneumoniae Str. 11, in vitro, 6 days 37° C., read-out: MIC): 0.1 µg/mL (≈ 0.203 µM); MIC ([24]; M. suipneumoniae MS 16, in vitro, 6 days 37° C., read-out: MIC): 0.1 µg/mL (≈ 0.203 µM); MIC ([25]; 144 h, M. suipneumoniae NB12, in vitro, 6 days 37° C., read-out: MIC): 0.25 µg/mL (≈ 0.507 µM); MIC [27, 29]: > 10 µg/mL
C/C(=C\C(=O)OC(C)c1ccc([N+](=O)[O-])cc1)CC1OCC(CC2OC2C(C)C(C)O)C(O)C1O (stereo not drawn) [Example 4, 1-(p-nitrophenyl)ethyl monate A] | 2.5 (≈ 5.07 µM) | > 80 | 2.5 (≈ 5.07 µM) | 40 (≈ 81 µM) | 0.312 (≈ 0.632 µM) | 1.25 (≈ 2.53 µM) | 5 (≈ 10.1 µM) | > 80 | 5 (≈ 10.1 µM) | 1.25 (≈ 2.53 µM) | 20 (≈ 40.5 µM) | > 80 | > 80 | > 80 | 20 (≈ 40.5 µM) | 0.625 (≈ 1.27 µM) | 2.5 (≈ 5.07 µM) | 2.5 (≈ 5.07 µM) | 0.05 (≈ 0.101 µM) |  | MIC ([2]; J2206/183B): 1 µg/mL (≈ 2.03 µM); MIC [21]: 0.5 µg/mL (≈ 1.01 µM); MIC [22]: 1 µg/mL (≈ 2.03 µM); MIC ([23]; STR.11, 144 h): 1 µg/mL (≈ 2.03 µM); MIC [24]: 1 µg/mL (≈ 2.03 µM); MIC ([25]; NB12, 144 h): 1 µg/mL (≈ 2.03 µM); MIC ([26]; M. dispar RCTC 10125, in vitro, 6 days 37° C., read-out: MIC): 0.1 µg/mL (≈ 0.203 µM); MIC [27, 29]: > 10 µg/mL
C/C(=C\C(=O)OCc1cccc([N+](=O)[O-])c1)CC1OCC(C/C=C/C(C)C(C)O)C(O)C1O (stereo not drawn) [Example 5, m-nitrobenzyl monate C] |  | > 80 | 2.5 (≈ 5.39 µM) | > 80 | 0.625 (≈ 1.35 µM) | 2.5 (≈ 5.39 µM) | 40 (≈ 86.3 µM) | > 80 | 10 (≈ 21.6 µM) | 2.5 (≈ 5.39 µM) | 80 (≈ 173 µM) | > 80 | > 80 | > 80 | 40 (≈ 86.3 µM) | 1.25 (≈ 2.7 µM) | 2.5 (≈ 5.39 µM) | 2.5 (≈ 5.39 µM) | 0.1 (≈ 0.216 µM) | 0.1 (≈ 0.216 µM) | MIC [1]: 0.25 µg/mL (≈ 0.539 µM); MIC ([2]; J2206/183B): 0.25 µg/mL (≈ 0.539 µM); MIC [21]: 0.25 µg/mL (≈ 0.539 µM); MIC [22]: 0.1 µg/mL (≈ 0.216 µM); MIC ([23]; STR.11, 144 h): 0.1 µg/mL (≈ 0.216 µM); MIC [24]: 0.1 µg/mL (≈ 0.216 µM); MIC ([25]; NB12, 144 h): 0.25 µg/mL (≈ 0.539 µM); MIC ([27]; S6, 144 h): 5 µg/mL (≈ 10.8 µM)

From patent US4436751A, “Nitrobenzyl monates antibacterial compounds” (Beecham Group Limited, priority 1980, dated 1984)
